This note sets out measurements from patent publication US20260083130A1, “NOVEL SULFONATE BENZAMIDE COMPOUNDS FOR CONTROLLING INVERTEBRATE PESTS” (FMC CORPORATION, priority 2022, published 2026).

Read-outs that look alike come from different tables or passages of the source. A value given as a limit tells only on which side of the number the result lay.

The subject of this assay is cotton melon aphid (Aphis gossypii (Glover)). Nature of the assay: Test E: control of cotton melon aphid, spray on okra plant. It is filed as in vivo. The following applies: 144 h. The procedure: Test compounds were formulated using a solution containing 10% acetone, 90% water and 300 ppm Activator 90® non-ionic surfactant (Loveland Products, Loveland, Colorado, USA). The formulated compounds were applied in 1 mL of liquid through an atomized nozzle positioned 1.27 cm (0.5 inches) above the top of each test unit. Test compounds were sprayed at the rates indicated, and each test was replicated three times.
For evaluating control of cotton melon aphid (Aphis gossypii (Glover)) through contact and/or systemic means, the test unit consisted of a small open container with a 5-day-old okra plant inside. This was pre-infested with 30-40 insects on a piece of leaf according to the cut-leaf method, and the soil of the test unit was covered with a layer of sand.
Test compounds were formulated and sprayed at 250, 50, 10, and 2 ppm with three replications as described above. After spraying, the test units were maintained in a growth chamber for 6 days at 19° C. and 70% relative humidity. Each test unit was then visually assessed for insect mortality.

Where [1] appears, read: sprayed at 250 ppm, assessed after 6 days, read-out: mortality.
Where [2] appears, read: sprayed at 50 ppm, assessed after 6 days, read-out: mortality.

The molecule `COC(=O)N(C(=O)c1cc(OS(=O)(=O)C(F)(F)F)cc(C(F)(F)F)c1)C(C)c1ncnn1-c1ncccn1` (stereo not shown) [Compound 48] had a mortality at 50 ppm of no less than 80% and a mortality at 250 ppm of no less than 80%. Consider `CC(NC(=O)c1cc(OS(=O)(=O)C(F)F)cc(C(F)(F)F)c1)c1ncnn1-c1ncccn1` (stereo not shown) [Compound 38], for which the mortality at 250 ppm under setting [1] is no less than 80%. As to `CC(NC(=O)c1cccc(OS(=O)(=O)C(F)F)c1)c1ncnn1-c1ncccn1` (stereo not shown) [Compound 7, 3-[[[1-[1-(2-Pyrimidinyl)-1H-1,2,4-triazol-5-yl]ethyl]amino]carbonyl]phenyl 1,1-difluoromethanesulfonate], the mortality at 50 ppm under setting [2] is no less than 80%. The mortality at 250 ppm under setting [1] is no less than 80%.

Turning to `CC(NC(=O)c1cc(OS(=O)(=O)C(F)(F)F)cc([N+](=O)[O-])c1)c1ncnn1-c1ncccn1` (stereo not shown) [Compound 46], under setting [2], the mortality at 50 ppm was no less than 80%. Further, the mortality at 250 ppm under setting [1] was no less than 80%. Turning to `CC(NC(=O)c1cc(Br)cc(OS(=O)(=O)C(F)(F)F)c1)c1ncnn1-c1ncccn1` (stereo not shown) [Compound 15, 3-Bromo-5-[[[1-[1-(2-pyrimidinyl)-1H-1,2,4-triazol-5-yl]ethyl]amino]carbonyl]phenyl 1,1,1-trifluoromethanesulfonate], the mortality at 50 ppm under setting [2] is no less than 80%. In addition, the mortality at 250 ppm under setting [1] is no less than 80%. In the case of `CC(NC(=O)c1cc(Cl)cc(OS(=O)(=O)CC(F)(F)F)c1)c1ncnn1-c1ncccn1` (stereo not shown) [Compound 52], the mortality at 250 ppm under setting [1] is no less than 80%.

Take `C[C@H](NC(=O)c1cc(OS(=O)(=O)C(F)(F)F)cc(C(F)(F)F)c1)c1ncnn1-c1ncccn1` [Compound 12, 3-[[[(1S)-[1-(2-Pyrimidinyl)-1H-1,2,4-triazol-5-yl]ethyl]amino]carbonyl]-5-(trifluoromethyl)phenyl 1,1,1-trifluoromethanesulfonate; (−) enantiomer]: under setting [1], the mortality at 250 ppm is no less than 80%.

Turning to `CC(NC(=O)c1cccc(OS(=O)(=O)c2ccccc2)c1)c1ncnn1-c1ncccn1` (stereo not shown) [Compound 6, 3-[(Phenylsulfonyl)oxy]-N-[1-[1-(2-pyrimidinyl)-1H-1,2,4-triazol-5-yl]ethyl]benzamide], the mortality at 250 ppm under setting [1] is no less than 80%. On to `CC(NC(=O)c1cc(OS(=O)(=O)C(F)(F)F)cc(C(F)(F)F)c1)c1ncnn1-c1ncccn1` (stereo not shown) [Compound 2, 3-[[[1-[1-(2-Pyrimidinyl)-1H-1,2,4-triazol-5-yl]ethyl]amino]carbonyl]-5-(trifluoromethyl)phenyl 1,1,1-trifluoromethanesulfonate], for which, where the note is “sprayed at 2 ppm, assessed after 6 days”, the mortality at 2 ppm was no less than 80%. Under “sprayed at 10 ppm, assessed after 6 days”, the mortality at 10 ppm was no less than 80%. For the same molecule, the mortality at 50 ppm under setting [2] is no less than 80%. The mortality at 250 ppm under setting [1] is no less than 80%. In the case of `COC(=O)N(C(=O)c1cc(Cl)cc(OS(=O)(=O)C(F)(F)F)c1)C(C)c1ncnn1-c1ncccn1` (stereo not shown) [Compound 20], the mortality at 50 ppm is no less than 80% and the mortality at 250 ppm is no less than 80%. As to `CC(NC(=O)c1cc(OS(=O)(=O)CC(F)(F)F)cc(C(F)(F)F)c1)c1ncnn1-c1ncccn1` (stereo not shown) [Compound 28], the mortality at 250 ppm under setting [1] was no less than 80%. Take `CC(NC(=O)c1cc(Cl)cc(OS(=O)(=O)C(F)F)c1)c1ncnn1-c1ncccn1` (stereo not shown) [Compound 39]: the mortality at 250 ppm under setting [1] was no less than 80%. With `CC(NC(=O)c1cc(F)cc(OS(=O)(=O)C(F)(F)F)c1)c1ncnn1-c1ncccn1` (stereo not shown) [Compound 14, 3-Fluoro-5-[[[1-[1-(2-pyrimidinyl)-1H-1,2,4-triazol-5-yl]ethyl]amino]carbonyl]phenyl 1,1,1-trifluoromethanesulfonate], under setting [2], the mortality at 50 ppm is no less than 80%. For the same molecule, under setting [1], the mortality at 250 ppm was no less than 80%.
